Assay results as given in PubChem BioAssay AID330 (DTP/NCI, 2004).
Several values for one entry are separate records, joined by “and”; a condition that tells them apart may be missing. Equal values may be shown once. Inconclusive results and toxic doses are left out. How the source made its calls: active means survival T/C of 150% or more; inactive means T/C below 125% in these data.

System: P388 leukemia ip, CD2F1 mice, survival T/C
Test: NCI In Vivo Anticancer Drug Screen. Data for tumor model P388 Leukemia (intraperitoneal) in CD2F1 (CDF1) mice
Details: endpoint: median survival time, higher = longer survival
In short: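 Mice carrying the transplanted tumor received test compound or vehicle. Survival was recorded in each group, and the value is the treated-group measurement divided by that of the vehicle-treated control group.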

[1] = dose: 50.0 mg/kg/injection, schedule: Q01DX009 (ip), vehicle: Klucel (hydroxypropylcellulose) (HPC)
[2] = dose: 100.0 mg/kg/injection, schedule: Q01DX009 (ip), vehicle: Klucel (hydroxypropylcellulose) (HPC)
[3] = dose: 200.0 mg/kg/injection, schedule: Q01DX009 (ip), vehicle: Klucel (hydroxypropylcellulose) (HPC)
[4] = dose: 100.0 mg/kg/injection, schedule: Q01DX009 (ip), vehicle: saline with Tween-80
[5] = dose: 100.0 mg/kg/injection, schedule: Q04DX002 (ip), vehicle: saline with Tween-80
[6] = dose: 200.0 mg/kg/injection, schedule: Q04DX002 (ip), vehicle: saline with Tween-80
[7] = dose: 50.0 mg/kg/injection, schedule: Q01DX005 (ip), vehicle: saline with Tween-80
[8] = dose: 12.5 mg/kg/injection, schedule: Q01DX009 (ip), vehicle: Klucel (hydroxypropylcellulose) (HPC)
[9] = dose: 25.0 mg/kg/injection, schedule: Q01DX009 (ip), vehicle: Klucel (hydroxypropylcellulose) (HPC)
[10] = dose: 60.0 mg/kg/injection, schedule: Q01DX005 (ip), vehicle: saline
[11] = dose: 120.0 mg/kg/injection, schedule: Q01DX005 (ip), vehicle: saline
[12] = dose: 240.0 mg/kg/injection, schedule: Q01DX005 (ip), vehicle: saline
[13] = dose: 50.0 mg/kg/injection, schedule: Q01DX005 (ip), vehicle: Klucel (hydroxypropylcellulose) (HPC)
[14] = dose: 60.0 mg/kg/injection, schedule: Q01DX005 (ip), vehicle: saline with Tween-80
[15] = dose: 120.0 mg/kg/injection, schedule: Q01DX005 (ip), vehicle: saline with Tween-80
[16] = dose: 240.0 mg/kg/injection, schedule: Q01DX005 (ip), vehicle: saline with Tween-80

Measured: T/C

Cc1nnc(NC(=O)c2ccc(Cl)c(Cl)c2)s1
inactive: [1] 100 % of control | [2] 94 % of control | [3] 89 % of control

O=c1c2ccccc2sc2cccc(Sc3ccccc3)c12
inactive: [4] 95 % of control | dose: 100.0 mg/kg/injection, schedule: Q04DX003 (ip), vehicle: saline with Tween-80 95 % of control | dose: 200.0 mg/kg/injection, schedule: Q04DX003 (ip), vehicle: saline with Tween-80 90 % of control | dose: 400.0 mg/kg/injection, schedule: Q04DX003 (ip), vehicle: saline with Tween-80 90 % of control

COC(=O)C1(C)CC2C(C)(CCC3(C)C4=CC=C5C(=CC(=O)C(O)=C5C)C4(C)CCC23C)CC1O (stereo not given)
inactive: dose: 6.25 mg/kg/injection, schedule: Q01DX001 (ip), vehicle: saline with Tween-80 100 % of control | dose: 12.5 mg/kg/injection, schedule: Q01DX001 (ip), vehicle: saline with Tween-80 99 % of control | dose: 25.0 mg/kg/injection, schedule: Q01DX001 (ip), vehicle: saline with Tween-80 99 % of control | dose: 100.0 mg/kg/injection, schedule: Q01DX001 (ip), vehicle: saline with Tween-80 100 % of control

CC1CC(C)S(=O)CS1 (stereo not given)
inactive: [5] 98 % of control | [6] 100 % of control

Cc1cc(=O)[nH]c2c1ccc1ccccc12
inactive: [5] 95 % of control | [6] 93 % of control | dose: 400.0 mg/kg/injection, schedule: Q04DX002 (ip), vehicle: saline with Tween-80 99 % of control

CCCCC(S)CS (stereo not given)
inactive: dose: 12.5 mg/kg/injection, schedule: Q01DX005 (ip), vehicle: saline with Tween-80 107 % of control | dose: 25.0 mg/kg/injection, schedule: Q01DX005 (ip), vehicle: saline with Tween-80 103 % of control | [7] 107 % of control and 110 % of control

CCOC(=O)c1cc(Br)c(=O)n(C)c1
inactive: [7] 96 % of control | dose: 100.0 mg/kg/injection, schedule: Q01DX005 (ip), vehicle: saline with Tween-80 95 % of control | dose: 200.0 mg/kg/injection, schedule: Q01DX005 (ip), vehicle: saline with Tween-80 89 % of control

C[N+](C)(C)CCC(=O)c1ccccc1
inactive: [8] 99 % of control | [9] 96 % of control

CC(C)N(CCCOC(=O)c1ccc(N)cc1)C(C)C
inactive: dose: 25.0 mg/kg/injection, schedule: Q01DX009 (ip), vehicle: saline 100 % of control | dose: 25.0 mg/kg/injection, schedule: Q04DX003 (ip), vehicle: saline 100 % of control | dose: 50.0 mg/kg/injection, schedule: Q01DX009 (ip), vehicle: saline 100 % of control | dose: 50.0 mg/kg/injection, schedule: Q04DX003 (ip), vehicle: saline 91 % of control | dose: 100.0 mg/kg/injection, schedule: Q01DX009 (ip), vehicle: saline 100 % of control | dose: 100.0 mg/kg/injection, schedule: Q04DX003 (ip), vehicle: saline 100 % of control

CC(C)=NNS(=O)(=O)c1ccccc1
inactive: dose: 6.25 mg/kg/injection, schedule: Q01DX009 (ip), vehicle: Klucel (hydroxypropylcellulose) (HPC) 108 % of control | [8] 110 % of control | [9] 100 % of control | [1] 110 % of control | [2] 108 % of control

Cc1ccc(C(=O)CC[N+](C)(C)C)cc1
inactive: dose: 3.13 mg/kg/injection, schedule: Q01DX009 (ip), vehicle: saline 109 % of control | dose: 6.25 mg/kg/injection, schedule: Q01DX009 (ip), vehicle: saline 113 % of control | dose: 12.5 mg/kg/injection, schedule: Q01DX009 (ip), vehicle: saline 109 % of control

O=S(=O)(O)c1ccc(-c2nnc(-c3ccccn3)nc2-c2ccc(S(=O)(=O)O)o2)o1
inactive: [10] 102 % of control | [11] 97 % of control | [12] 102 % of control

Cc1cccc(=O)[n-]1.Cc1cccc(=O)[n-]1.Cc1cccc(=O)[n-]1.Cc1cccc(=O)[n-]1.[Cr+2].[Cr+2]
inactive: dose: 100.0 mg/kg/injection, schedule: Q04DX002 (ip), vehicle: Klucel (hydroxypropylcellulose) (HPC) 90 % of control | dose: 200.0 mg/kg/injection, schedule: Q04DX002 (ip), vehicle: Klucel (hydroxypropylcellulose) (HPC) 110 % of control | dose: 400.0 mg/kg/injection, schedule: Q04DX002 (ip), vehicle: Klucel (hydroxypropylcellulose) (HPC) 120 % of control

CC(C)(C)[Si](C)(C)OC[C@@H]1OC=CC(=O)[C@H]1O
inactive: [13] 102 % of control | dose: 100.0 mg/kg/injection, schedule: Q01DX005 (ip), vehicle: Klucel (hydroxypropylcellulose) (HPC) 94 % of control | dose: 200.0 mg/kg/injection, schedule: Q01DX005 (ip), vehicle: Klucel (hydroxypropylcellulose) (HPC) 101 % of control

CCCC1OC(/C=C/c2ccccc2)OCC1CC (stereo not given)
inactive: [4] 101 % of control and 108 % of control and 109 % of control | dose: 200.0 mg/kg/injection, schedule: Q01DX009 (ip), vehicle: saline with Tween-80 101 % of control and 116 % of control (2×) | dose: 400.0 mg/kg/injection, schedule: Q01DX009 (ip), vehicle: saline with Tween-80 116 % of control and 120 % of control

CS1(C)=Nc2c([N+](=O)[O-])cc([N+](=O)[O-])cc2S(=O)(=O)N=1
inactive: [14] 98 % of control | [15] 94 % of control | [16] 94 % of control

OC1N2CCSC2=NC1(c1ccccc1)c1ccccc1 (stereo not given)
inactive: dose: 18.75 mg/kg/injection, schedule: Q04DX003 (ip), vehicle: Klucel (hydroxypropylcellulose) (HPC) 107 % of control | dose: 37.5 mg/kg/injection, schedule: Q04DX003 (ip), vehicle: Klucel (hydroxypropylcellulose) (HPC) 95 % of control | dose: 75.0 mg/kg/injection, schedule: Q04DX003 (ip), vehicle: Klucel (hydroxypropylcellulose) (HPC) 100 % of control | dose: 150.0 mg/kg/injection, schedule: Q04DX003 (ip), vehicle: Klucel (hydroxypropylcellulose) (HPC) 110 % of control | dose: 300.0 mg/kg/injection, schedule: Q04DX003 (ip), vehicle: Klucel (hydroxypropylcellulose) (HPC) 93 % of control

COc1cc([C@@H]2c3cc4c(c(OC)c3C[C@H]3COC(=O)[C@@H]32)OCO4)cc(OC)c1OC
inactive: dose: 12.5 mg/kg/injection, schedule: Q01DX005 (ip), vehicle: Klucel (hydroxypropylcellulose) (HPC) 100 % of control | dose: 25.0 mg/kg/injection, schedule: Q01DX005 (ip), vehicle: Klucel (hydroxypropylcellulose) (HPC) 103 % of control | [13] 103 % of control and 111 % of control

CCOC(=O)N1C=CC(CC(=O)N(CC)CC)C=C1 (tested in a mixture with another compound)
inactive: [10] 102 % of control | [11] 96 % of control | [12] 108 % of control

CSC1=NN(C)C2(CCCCC2)C(=O)N1
inactive: [1] 115 % of control | [2] 96 % of control | [3] 118 % of control

Clc1ccc(C2=NON(c3ncccn3)C3N=CC=CN23)cc1 (stereo not given)
inactive: [14] 87 % of control | [15] 91 % of control | [16] 99 % of control
